Data: patent US20230266302A1, “SYNTHESIS AND USE OF N-BENZYL SULFONAMIDES” (THE UNIVERSITY OF TULSA, priority 2020, published 2023)

How the values were obtained:
Assay in all cases: ATP level assay (CellTiter-Glo), percent of control
Assay type in all cases: cell-based
SkBr3 (breast cancer) = conditions: two hour incubation; for activity at 100 µM: Homo sapiens, SK-BR-3, 2 h, compound alone, control DMSO, read-out: POC (percent of control) SkBr3
Excerpt: (§1) In the present method, the method of using the available assays has been modified to measure the short-term effect of compounds of interest on ATP levels in the cells. […] In the modified method, the control and test cells are initially treated with the metabolic inhibitor for a period of about thirty minutes to about four hours. Typically, the treatment of the cells with the metabolic inhibitor is for one hour prior to adding the compound to be screened for anti-cancer properties. However, simultaneous treatment with the metabolic inhibitor and the compound being screened should provide satisfactory results. […] ATP synthesis in cells occurs over multiple biochemical pathways. These pathways are very responsive to metabolic inhibitors and/or changes in available nutrients. By incorporating a metabolic inhibitor which is known to impact certain pathways, the disclosed method provides for measurement of a compound's direct effects on the remaining metabolic pathways available for ATP synthesis in the cell.
(§2) Following treatment of the control and test cells with the metabolic inhibitor, the method calls for addition of the compound to be screened for anti-cancer properties to the cells. Following addition of the compound of interest, the assay is allowed to continue for about one hour to about four hours or depending on the luminescing agent up to eighteen hours. However, approximately 60 minutes will be sufficient to determine the ATP inhibiting effect of the compound to be screened on the cells. Following completion of the selected time period, the ATP level within the cell is determined. ATP levels can be determined by luminescence according to standard measuring procedures, i.e. the luminescence level of the assay from the living cells treated with the two component composition is compared to the luminescence level of the assay from the living cells without the two component composition, i.e., the control experiment. Thus, the ATP levels are determined without killing the cells during the incubation of the cells in the presence of the compound of interest. As a result, the measured reduction in ATP level corresponds directly to the inhibition of the metabolic pathways uninhibited by the metabolic blocker.
(§3) A wide variety of ATP luminescing detection reagents are available commercially. So long as the reagent produces a luminescence in the presence of ATP, the reagent will be suitable for use in the present method. Suitable reagents include but are not limited to any ATP dependent luciferase such as but not limited to firefly luciferase, other modified luciferase based reagents, i.e. luciferase derivatives. According to the rapid method for determining the anti-cancer activity of a compound, a sample of living cells is distributed across a number of testing wells. Typically, 96-well plates are used; however, the number of wells is not critical to the current method. When using a 96-well plate the number of living cells will commonly be about 20,000. The sample wells contain a cell growth medium to promote cell health and growth and an additive to prevent bacterial contamination of the wells. One common example of the cell growth medium is DMEM with 10% FBS as described above. One example of the additive to prevent bacterial contamination is a solution of penicillin G and streptomycin referred to commonly as Pen-Strep. The Pen-Strep solution typically contains 5000 units of penicillin G and 5000 micrograms of streptomycin. Thus, the rapid determination of anti-cancer compounds can be carried out using the following method. • The desired number of cells are distributed in a 96-well plate containing 100 μL DMEM plus 10% FBS with optional Pen-Strep. • After 24 hours, cells are treated with the compound of interest or a 5% solution of dimethyl sulfoxide (DMSO) in water as a control. • The time period for exposure to the compound of interest and the DMSO control will vary depending on the luminescing detection reagent. […]

HDF (normal cells) = conditions: two hour incubation; for activity at 100 µM: 2 h, compound alone, control DMSO, read-out: POC (percent of control) HDF
Excerpt: as §1, §2, §3

PC3 (prostate cancer) = conditions: two hour incubation; for activity at 100 µM: 2 h, compound alone, control DMSO, read-out: POC (percent of control) PC3
Excerpt: as §1, §2, §3

NCI-H196 (lung cancer) = conditions: two hour incubation; for activity at 100 µM: NCI-H196, 2 h, compound alone, control DMSO, read-out: POC (percent of control) NCI-H196
Excerpt: as §1, §2, §3

[1] = test system: BxPC3 (pancreatic cancer); conditions: two hour incubation; for activity at 100 µM: Homo sapiens, BXPC-3, 2 h, compound alone, control DMSO, read-out: POC (percent of control) BxPC3
Excerpt: as §1, §2, §3

T47D (breast cancer) = conditions: two hour incubation; for activity at 100 µM: Homo sapiens, T47D, 2 h, compound alone, control DMSO, read-out: POC (percent of control) T47D
Excerpt: as §1, §2, §3

[2] = test system: MCF10A (non-cancerous breast); conditions: two hour incubation; for activity at 100 µM: Homo sapiens, MCF-10A, 2 h, compound alone, control DMSO, read-out: POC (percent of control) MCF10A
Excerpt: as §1, §2, §3

H293 (kidney cancer) = conditions: two hour incubation; for activity at 100 µM: 2 h, compound alone, control DMSO, read-out: POC (percent of control) H293
Excerpt: as §1, §2, §3

MDA-MB (breast cancer) = conditions: two hour incubation; for activity at 100 µM: 2 h, compound alone, control DMSO, read-out: POC (percent of control) MDA-MB
Excerpt: as §1, §2, §3

HeLa (cervical cancer) = conditions: two hour incubation; for activity at 100 µM: Homo sapiens, HeLa, 2 h, compound alone, control DMSO, read-out: POC (percent of control) HeLa
Excerpt: as §1, §2, §3

MCF7 (breast cancer) = conditions: two hour incubation; for activity at 100 µM: Homo sapiens, MCF7, 2 h, compound alone, control DMSO, read-out: POC (percent of control) MCF7
Excerpt: as §1, §2, §3

[3] = compound 100 uM + 2DG (about 10-20 mM)
[4] = compound 100 uM + rotenone (approximately 1.25 μM)

SMILES	activity at 100 µM (SkBr3 (breast cancer))	POC (percent of control) SkBr3 (SkBr3 (breast cancer); [3])	POC (percent of control) SkBr3 (SkBr3 (breast cancer); [4])	activity at 100 µM (HDF (normal cells))	POC (percent of control) HDF (HDF (normal cells); [3])	POC (percent of control) HDF (HDF (normal cells); [4])	activity at 100 µM (PC3 (prostate cancer))	POC (percent of control) PC3 (PC3 (prostate cancer); [3])	POC (percent of control) PC3 (PC3 (prostate cancer); [4])	activity at 100 µM (NCI-H196 (lung cancer))	POC (percent of control) NCI-H196 (NCI-H196 (lung cancer); [3])	POC (percent of control) NCI-H196 (NCI-H196 (lung cancer); [4])	activity at 100 µM [1]	POC (percent of control) BxPC3 [1, 3]	POC (percent of control) BxPC3 [1, 4]	activity at 100 µM (T47D (breast cancer))	POC (percent of control) T47D (T47D (breast cancer); [3])	POC (percent of control) T47D (T47D (breast cancer); [4])	activity at 100 µM [2]	POC (percent of control) MCF10A [2, 3]	other results
Cc1cccc2[nH]cc(CNS(=O)(=O)c3ccc(Cl)cc3)c12 [Compound 30, 4-chloro-N-[(4-methyl-1H-indol-3-yl)methyl]benzenesulfonamide]	64.1%	41.3% of control	58.2% of control	28.2%	28.4% of control	66.2% of control	7.1%	10.6% of control	21.7% of control	48%	18.7% of control	18.4% of control	15.8%	6.3% of control	45.7% of control	16.1%	13.2% of control	28% of control	30%	8.4% of control	POC (percent of control) MCF10A [2, 4]: 34.6% of control; activity at 100 µM (H293 (kidney cancer)): 14%; POC (percent of control) H293 (H293 (kidney cancer); [3]): 12.8% of control; POC (percent of control) H293 (H293 (kidney cancer); [4]): 9.5% of control; activity at 100 µM (MDA-MB (breast cancer)): 38.6%; POC (percent of control) MDA-MB (MDA-MB (breast cancer); [3]): 41.5% of control; POC (percent of control) MDA-MB (MDA-MB (breast cancer); [4]): 48.3% of control; activity at 100 µM (HeLa (cervical cancer)): 28.5%; POC (percent of control) HeLa (HeLa (cervical cancer); [3]): 17.8% of control; POC (percent of control) HeLa (HeLa (cervical cancer); [4]): 58.4% of control; activity at 100 µM (MCF7 (breast cancer)): 37.4%; POC (percent of control) MCF7 (MCF7 (breast cancer); [3]): 11.3% of control; POC (percent of control) MCF7 (MCF7 (breast cancer); [4]): 36% of control
Cn1ncc2cc(CNS(=O)(=O)c3ccc(Cl)cc3)ccc21 [Compound 10, 4-chloro-N-[(1-methyl-1H-indazol-5-yl)methyl]benzenesulfonamide]	90.8%	98% of control	107.3% of control	88.6%	92.7% of control	82.2% of control	115%	97.8% of control	98.7% of control	106%	90.8% of control	103.7% of control	66.3%	62.9% of control	54.4% of control	63.5%	76.6% of control	91.4% of control	92%	100.4% of control	POC (percent of control) MCF10A [2, 4]: 83.5% of control; activity at 100 µM (H293 (kidney cancer)): 106%; POC (percent of control) H293 (H293 (kidney cancer); [3]): 84% of control; POC (percent of control) H293 (H293 (kidney cancer); [4]): 70.8% of control; activity at 100 µM (MDA-MB (breast cancer)): 94.1%; POC (percent of control) MDA-MB (MDA-MB (breast cancer); [3]): 86.7% of control; POC (percent of control) MDA-MB (MDA-MB (breast cancer); [4]): 87.4% of control; activity at 100 µM (HeLa (cervical cancer)): 106%; POC (percent of control) HeLa (HeLa (cervical cancer); [3]): 91.3% of control; POC (percent of control) HeLa (HeLa (cervical cancer); [4]): 85.5% of control; activity at 100 µM (MCF7 (breast cancer)): 115%; POC (percent of control) MCF7 (MCF7 (breast cancer); [3]): 121.2% of control; POC (percent of control) MCF7 (MCF7 (breast cancer); [4]): 89.4% of control
